These results are taken from BigSolDB 2.1.

Broadly, the solubility (mole fraction) is the moles of solute divided by all moles in the saturated solution. In the case of `N#Cc1ccc(NS(=O)(=O)c2ccc(N)cc2)cc1`, the solubility (mole fraction) was 0.00112 (in n-octanol, 293.15 K); 0.00129 (in n-octanol, 298.15 K); 0.00158 (in n-octanol, 303.15 K); 0.00197 (in n-octanol, 310.15 K); 0.00234 (in n-octanol, 315.15 K); 4.11e-06 (in water, 293.15 K). In addition, the solubility (mole fraction) runs as follows: (in water, 298.15 K) 5.47e-06; (in water, 303.15 K) 7.58e-06; (in water, 310.15 K) 1.16e-05; (in water, 315.15 K) 1.45e-05.
For `O=[N+]([O-])c1ccc(NS(=O)(=O)c2ccccc2)cc1`, the solubility (mole fraction) runs as follows: (in n-octanol, 293.15 K) 0.00958; (in n-octanol, 298.15 K) 0.0116; (in n-octanol, 303.15 K) 0.0139; (in n-octanol, 310.15 K) 0.018; (in n-octanol, 315.15 K) 0.0222; (in water, 293.15 K) 1.45e-06. Further, the solubility (mole fraction) by setting is: (in water, 298.15 K) 1.85e-06; (in water, 303.15 K) 2.32e-06; (in water, 310.15 K) 3.19e-06; (in water, 315.15 K) 3.71e-06.
Regarding `Nc1ccc(S(=O)(=O)Nc2ccc([N+](=O)[O-])cc2)cc1`, the solubility (mole fraction) came out at 0.0026 (in n-octanol, 293.15 K); 0.003 (in n-octanol, 298.15 K); 0.00361 (in n-octanol, 303.15 K); 0.00465 (in n-octanol, 310.15 K); 0.00562 (in n-octanol, 315.15 K); 2.72e-06 (in water, 293.15 K). The solubility (mole fraction) by setting is: (in water, 298.15 K) 3.64e-06; (in water, 303.15 K) 4.88e-06; (in water, 310.15 K) 7.63e-06; (in water, 315.15 K) 8.29e-06.
